Measured values: publication PMC7900953, “Location of a single histidine within peptide carriers increases mRNA delivery” (The Journal of Gene Medicine, 2020)

Assays:
Acid–base titration = type: physicochemical; conditions: 5 mg/ml, from pH 3.0, 5 μl aliquots of 0.05 M NaOH to about pH 9.0
Experimental: After the polymer solution [H2K4b, H3K4b, H3K(+H)4b and H4K4b] was adjusted to pH 3.0 (5 mg/ml; initial volume 1 ml), aliquots (5 μl) of NaOH (0.05 M) were stepwise added with the pH measured (FiveEasy™ meter; InLab Solids Pro‐ISM pH electrode; Mettler Toledo, Columbus, OH, USA). Titration was stopped at approximately pH 9.0.
FIGURE 2 Titration of different HK peptide solutions. Solutions of polymers (5 mg/ml) [H2K4b, H3K4b, H3K(+H)4b and H4K4b] were adjusted to pH 3 (initial volume 1 ml) and then 5‐μl aliquots of 0.05 N NaOH were stepwise added and the pH was measured

MDA‐MB‐231 cells [1] = assay: In vitro uptake of HK polyplexes by fluorescence microscopy; type: cell-based; conditions: HK:mRNA 4:1; for Aggregates of polyplexes seen by fluorescence microscopy: 4 hours after transfection
Experimental: With the mRNA labeled with Cy5, HK polyplexes at a ratio of 4:1 (HK:mRNA) were prepared as described for in vitro transfection. The labeled polyplexes were incubated with MDA‐MB‐231 cells for four hours in Opti‐MEM. After the cells were washed with phosphate‐buffered saline (PBS) (Quality Biologicals, Gaithersburg, MD, USA), they were incubated for 30 minutes with LysoTracker Green DND‐26 (Cell Signaling Technology, Inc., Danvers, MA, USA), a dye that stains acidic endosomes and lysosomes. Then after the cells were washed twice with PBS and once with 1% Triton‐X, they were fixed (4% formalin/1% glutaraldehyde) and the nuclei were stained with chromatin dye Hoechst 33342 (Invitrogen, Carlsbad, CA, USA). Images were obtained with a Nikon TE2000‐S (Nikon, Tokyo, Japan) with a mercury lamp light source usng the filter sets: Ex‐357(20)/Em‐460(60) (Hoechst); Ex‐480(30)/Em‐535(45) (Lysotracker green DND‐26); Ex‐620(50)/Em‐690(50) (Cy5‐labeled‐mRNA). Red/green ratios were measured on 20 intracellular acidic vesicles (one per cell) using ImageJ, version 1.52. ^42
FIGURE 5 Fluorescence images of different mRNA polyplexes within acidic vesicles of MDA‐MB‐231 cells. (A) Four hours after transfection with labeled mRNA by H3K(+H)4b (upper) or H3K4b (lower) carriers, intracellular acidic vesicles were stained with Lysotracker green. The cells were then fixed, and the nuclei were stained with Hoesch 33342 dye. Images were obtained with a Nikon TE2000‐S using a mercury lamp light source and the filter sets delineated in the Materials and methods (green, acidic vesicles; red, cynanine 5‐labeled mRNA; blue, nuclei labeled with Hoescht dye). […] Arrows indicate the irregularly shaped mRNA aggregates frequently observed with H3K4b carrier. (B) Analysis of the amount of HK (H3K4b or H3K(+H)4b) polyplexes within acidic endosomal vesicles of MDA‐MB‐231 cells. Images of HK polyplexes labeled with cyanine5 (red emission) were imported into endosomal vesicles (green emission). The red/green ratios were measured on 20 intracellular acidic vesicles using ImageJ. […]

MDA‐MB‐231 cells [2] = assay: In vitro transfection of luciferase-expressing mRNA with HK polyplexes; type: cell-based; conditions: for Effectiveness as carrier of mRNA: luciferase mRNA polyplexes; for Luciferase activity, RLU/µg-Protein: polyplex in Opti-MEM on cells 4 h, then DMEM/10% serum, luciferase 24 h later, mean ± SD
Experimental: Several HK peptides were examined for their ability to carry a luciferase‐expressing mRNA (CleanCap Firefly Luciferase mRNA; Trilink Biotechnologies, Inc., San Diego, CA, USA) into MDA‐MB‐231 cells (America Type Tissue Culture, Manassas, VA, USA). In brief, 3 × 10^4 cells were plated into a 24‐well plate containing 500 μl of Dulbecco’s modified Eagle’s medium (DMEM) and 10% fetal bovine serum (Thermo Fisher Scientific, Waltham, MA, USA). After 24 hours, when the cells were 60–80% confluent, the media in each well was changed to Opti‐MEM (Thermo Fisher Scientific). To prepare HK polyplexes, mRNA (1 μg) in 50 μl of Opti‐MEM was briefly mixed well with one of the HK peptides (4–12 μg) and maintained at room temperature for 30 minutes. This polyplex was then added dropwise to the cells. After 4 hours, the Opti‐MEM media was removed and replaced with 0.5 ml of DMEM/10% serum. Twenty‐four hours later, the cells were lysed, and luciferase activity (Promega Corporation, Madison, WI, USA) was measured. ^28 Also, a negative control (mRNA without the carrier) was added to the cells and luciferase activity measured 24 hours later.
FIGURE 1 Comparison of H3K(+H)4b and H3K4b peptides as carriers of mRNA. To form polyplexes, the mRNA (1 μg) was mixed with three different ratios of the HK (4, 8 and 12 μg) polymer for 30 minutes. The mRNA polyplexes were then added to the cells as described in the Materials and methods, and luciferase activity was measured 24 hours later. ***p < 0.001; ****p < 0.0001, H3K(+H)4b versus H3K4b
FIGURE 6 Comparing H3K(+H)4b and other four‐branched HK peptides for mRNA transfection. After polyplexes were formed with HK peptides (4 μg) and luciferase‐expressing mRNA (1 μg) and added to cells, luciferase activity was measured […] later. These HK peptides contained an additional histidine in the second motif.
FIGURE 7 Comparison of H3K(+H)4b with branched peptides without an additional histidine in the second motif. Polyplexes were formed with mRNA (1 μg) and various HK peptides (4 μg) and, after their addition to cells, luciferase activity was determined 24 h later. H3K(1+H)4b and H3K(3+H)4b peptides have an extra histidine in the first and third domains, respectively. H3K(1,3+H)4b has two additional histidines: one in the first and the other third motif. […] Unlike H3K(+H)4b, the predominant repeating motif of H2K4b in its branch is ‐HHK. ***p < 0.001, H3K(+H)4b versus H2K4b or H3K(1,3+H)4b; ****p < 0.0001, H3K(+H)4b versus H3K(1+H)4b or H3K(3+H)4b motifs
To prepare HK polyplexes, luciferase-expressing mRNA (1 µg) in 50 µl of Opti-MEM was briefly mixed with one of the HK peptides (4, 8, or 12 µg) and maintained at room temperature for 30 min. This polyplex was then added dropwise to the MDA-MB-231 cells and after four h, the Opti-MEM media was removed and replaced with DMEM/10% serum. Twenty-four hours later, luciferase activity was measured.

[3] = ratio 1:4 (wt:wt; mRNA:polymer; 1 µg mRNA, 4 µg HK)
[4] = ratio 1:8 (wt:wt; mRNA:polymer; 1 µg mRNA, 8 µg HK)
[5] = ratio 1:12 (wt:wt; mRNA:polymer; 1 µg mRNA, 12 µg HK)

| Substance | Buffering profile from pH titration curves (Acid–base titration) | Aggregates of polyplexes seen by fluorescence microscopy (MDA‐MB‐231 cells [1]) | Localization of polyplexes within acidic endosomal vesicles (MDA‐MB‐231 cells [1]; 4 hours in Opti‐MEM, red/green ratios on 20 vesicles, p < 0.001) | Luciferase expression relative to H3K4b peptide (MDA‐MB‐231 cells [2]; fold greater, ratio 4:1 (HK:mRNA; w:w)) [fold] | Effectiveness as carrier of mRNA (MDA‐MB‐231 cells [2]) | Luciferase activity, RLU/µg-Protein (MDA‐MB‐231 cells [2]; [3]) [RLU/µg-Protein] | Luciferase activity, RLU/µg-Protein (MDA‐MB‐231 cells [2]; [4]) [RLU/µg-Protein] | Luciferase activity, RLU/µg-Protein (MDA‐MB‐231 cells [2]; [5]) [RLU/µg-Protein] |
| --- | --- | --- | --- | --- | --- | --- | --- | --- |
| R = KHHHKHHHKHHHHKHHHK [H3K(+H)4b, four‐branched analogue of H3K4b with one extra histidine in the second ‐HHHK‐ motif] | minimal differences in their buffering profile | not observed | localized within the acidic endosomal vesicles significantly more than H3K4b polyplexes | 10 | effective carriers of mRNA | 1532.9±122.9 | 1656.3±202.5 | 1033.4±197 |
| R = KHHHKHHHKHHHKHHHK [H3K4b, four‐branched histidine‐lysine peptide with four ‐HHHK‐ motifs in each branch] | minimal differences in their buffering profile | likely extracellular aggregates |  |  | not effective carriers of mRNA | 156.8±41.8 | 62.1±13.2 | 18.1±4.0 |
